{"source": "patent US20030215516A1", "about": "“Process for production of crystals of a medicinally effective ingredient, crystals obtained thereby and pharmaceutical preparations containing them” (priority 2002, published 2003)", "key": {"[1]": {"assay": "Active ingredient release from 1 mg capsule / 1 mg tablet", "type": "physicochemical", "settings": "0.3% SDS in water", "description": "The release values were compared in a test medium, which comprises 0.3% SDS in water, with paddle stirring, 100 rpm.\nActive Ingredient Release:\nActive ingredient release measured in 1000 mL water with 0.3% sodium dodecyl sulfate, 100 rpm\nContent Determination by HPLC with external calibration\n(§1) Column: LiChrosphere 5μ RP-18 encapped, 150×3 mm\n(§2) Eluent: acetonitrile/water=45/55"}, "[2]": {"description": "Content Determination according to USP/Ph. Eur. for individual capsules after elution through HPLC with external calibration\nas §1, §2"}, "[3]": {"assay": "Particle size distribution (Sympatec HELOS, dry dispersion)", "type": "physicochemical", "source_text": "Particle Size Distribution:\nSympatec HELOS (H0445), dry dispersion system (RODOS), pressure 2 bar"}, "[4]": {"settings": "1 mg capsule, microcrystals X50 3.4/X100 25 μm"}, "[5]": {"settings": "1 mg capsule, microcrystals X50 5.2/X100 30 μm"}, "[6]": {"settings": "1 mg capsule, microcrystals X50 6.6/X100 43 μm"}, "[7]": {"settings": "1 mg capsule, microcrystals X50 8.7/X100 43 μm"}, "[8]": {"settings": "1 mg capsule, microcrystals X50 14.1/X100 87 μm"}, "[9]": {"settings": "1 mg tablet, microcrystals X50 10.6/X100 73 μm"}, "[10]": {"settings": "Example 1, spray-dried microcrystals"}, "[11]": {"settings": "Example 2, primary particle size"}, "[12]": {"settings": "Example 3, primary particle size"}, "[13]": {"settings": "after drying on filter (from ethyl acetate suspension)"}, "[14]": {"settings": "after spray-drying (from ethanol/water suspension)"}, "[15]": {"settings": "suspension in ethanol/water (90/10) with 10% by weight microcrystalline J956, before drying"}, "[16]": {"settings": "suspension in ethyl acetate with 14% by weight microcrystalline J956, before drying"}}, "note": "Read-outs that look alike come from different tables or passages of the source. Marks after values point to notes of the source that are not given here."}
{"smiles": "CCNC(=O)ON=Cc1ccc(C2CC3(C)C(CCC3(COC)OC)C3CCC4=CC(=O)CCC4=C23)cc1", "note": "(stereo not drawn) [J956, 11β-{4-[(ethylaminocarbonyl)oximinomethyl]phenyl}-17β-methoxy-17α-methoxymethyl-estra-4,9-dien-3-one]", "values": [{"measurement": "RELEASE in %", "setting": "[1]; 1 mg capsule, microcrystals X50 3.4/X100 25 μm, 0 min, paddle 100 rpm", "result": 0, "unit": "%"}, {"measurement": "RELEASE in %", "setting": "[1]; 1 mg capsule, microcrystals X50 3.4/X100 25 μm, 10 min, paddle 100 rpm", "result": 90.7, "unit": "%"}, {"measurement": "RELEASE in %", "setting": "[1]; 1 mg capsule, microcrystals X50 3.4/X100 25 μm, 20 min, paddle 100 rpm", "result": 97.3, "unit": "%"}, {"measurement": "RELEASE in %", "setting": "[1]; 1 mg capsule, microcrystals X50 3.4/X100 25 μm, 30 min, paddle 100 rpm", "result": 98.1, "unit": "%"}, {"measurement": "RELEASE in %", "setting": "[1]; 1 mg capsule, microcrystals X50 3.4/X100 25 μm, 45 min, paddle 100 rpm", "result": 99.9, "unit": "%"}, {"measurement": "RELEASE in %", "setting": "[1]; 1 mg capsule, microcrystals X50 5.2/X100 30 μm, 0 min, paddle 100 rpm", "result": 0, "unit": "%"}, {"measurement": "RELEASE in %", "setting": "[1]; 1 mg capsule, microcrystals X50 5.2/X100 30 μm, 10 min, paddle 100 rpm", "result": 89.8, "unit": "%"}, {"measurement": "RELEASE in %", "setting": "[1]; 1 mg capsule, microcrystals X50 5.2/X100 30 μm, 20 min, paddle 100 rpm", "result": 93.5, "unit": "%"}, {"measurement": "RELEASE in %", "setting": "[1]; 1 mg capsule, microcrystals X50 5.2/X100 30 μm, 30 min, paddle 100 rpm", "result": 93.4, "unit": "%"}, {"measurement": "RELEASE in %", "setting": "[1]; 1 mg capsule, microcrystals X50 5.2/X100 30 μm, 45 min, paddle 100 rpm", "result": 95.6, "unit": "%"}, {"measurement": "RELEASE in %", "setting": "[1]; 1 mg capsule, microcrystals X50 6.6/X100 43 μm, 0 min, paddle 100 rpm", "result": 0, "unit": "%"}, {"measurement": "RELEASE in %", "setting": "[1]; 1 mg capsule, microcrystals X50 6.6/X100 43 μm, 10 min, paddle 100 rpm", "result": 93.2, "unit": "%"}, {"measurement": "RELEASE in %", "setting": "[1]; 1 mg capsule, microcrystals X50 6.6/X100 43 μm, 20 min, paddle 100 rpm", "result": 95.9, "unit": "%"}, {"measurement": "RELEASE in %", "setting": "[1]; 1 mg capsule, microcrystals X50 6.6/X100 43 μm, 30 min, paddle 100 rpm", "result": 96.7, "unit": "%"}, {"measurement": "RELEASE in %", "setting": "[1]; 1 mg capsule, microcrystals X50 6.6/X100 43 μm, 45 min, paddle 100 rpm", "result": 96.8, "unit": "%"}, {"measurement": "RELEASE in %", "setting": "[1]; 1 mg capsule, microcrystals X50 8.7/X100 43 μm, 0 min, paddle 100 rpm", "result": 0, "unit": "%"}, {"measurement": "RELEASE in %", "setting": "[1]; 1 mg capsule, microcrystals X50 8.7/X100 43 μm, 10 min, paddle 100 rpm", "result": 93.5, "unit": "%"}, {"measurement": "RELEASE in %", "setting": "[1]; 1 mg capsule, microcrystals X50 8.7/X100 43 μm, 20 min, paddle 100 rpm", "result": 96.7, "unit": "%"}, {"measurement": "RELEASE in %", "setting": "[1]; 1 mg capsule, microcrystals X50 8.7/X100 43 μm, 30 min, paddle 100 rpm", "result": 98.5, "unit": "%"}, {"measurement": "RELEASE in %", "setting": "[1]; 1 mg capsule, microcrystals X50 8.7/X100 43 μm, 45 min, paddle 100 rpm", "result": 99.7, "unit": "%"}, {"measurement": "RELEASE in %", "setting": "[1]; 1 mg capsule, microcrystals X50 14.1/X100 87 μm, 0 min, paddle 100 rpm", "result": 0, "unit": "%"}, {"measurement": "RELEASE in %", "setting": "[1]; 1 mg capsule, microcrystals X50 14.1/X100 87 μm, 10 min, paddle 100 rpm", "result": 90.2, "unit": "%"}, {"measurement": "RELEASE in %", "setting": "[1]; 1 mg capsule, microcrystals X50 14.1/X100 87 μm, 20 min, paddle 100 rpm", "result": 95.3, "unit": "%"}, {"measurement": "RELEASE in %", "setting": "[1]; 1 mg capsule, microcrystals X50 14.1/X100 87 μm, 30 min, paddle 100 rpm", "result": 96.0, "unit": "%"}, {"measurement": "RELEASE in %", "setting": "[1]; 1 mg capsule, microcrystals X50 14.1/X100 87 μm, 45 min, paddle 100 rpm", "result": 96.3, "unit": "%"}, {"measurement": "RELEASE in %", "setting": "[1]; 1 mg tablet, microcrystals X50 10.6/X100 73 μm, 0 min, paddle, 100 rpm", "result": 0, "unit": "%"}, {"measurement": "RELEASE in %", "setting": "[1]; 1 mg tablet, microcrystals X50 10.6/X100 73 μm, 10 min, paddle, 100 rpm", "result": 73.7, "unit": "%"}, {"measurement": "RELEASE in %", "setting": "[1]; 1 mg tablet, microcrystals X50 10.6/X100 73 μm, 20 min, paddle, 100 rpm", "result": 90.3, "unit": "%"}, {"measurement": "RELEASE in %", "setting": "[1]; 1 mg tablet, microcrystals X50 10.6/X100 73 μm, 30 min, paddle, 100 rpm", "result": 91.85, "unit": "%"}, {"measurement": "RELEASE in %", "setting": "[1]; 1 mg tablet, microcrystals X50 10.6/X100 73 μm, 45 min, paddle, 100 rpm", "result": 96.6, "unit": "%"}, {"measurement": "CUT value spread: Confidence Interval %", "setting": "[2]; [4]", "result": 2.23, "unit": "%"}, {"measurement": "CUT value spread: RSD, %", "setting": "[2]; [4]", "result": 3.56, "unit": "%"}, {"measurement": "CUT value spread: Confidence Interval %", "setting": "[2]; [5]", "result": 1.20, "unit": "%"}, {"measurement": "CUT value spread: RSD, %", "setting": "[2]; [5]", "result": 2.08, "unit": "%"}, {"measurement": "CUT value spread: Confidence Interval %", "setting": "[2]; [6]", "result": 1.08, "unit": "%"}, {"measurement": "CUT value spread: RSD, %", "setting": "[2]; [6]", "result": 1.57, "unit": "%"}, {"measurement": "CUT value spread: Confidence Interval %", "setting": "[2]; [7]", "result": 0.93, "unit": "%"}, {"measurement": "CUT value spread: RSD, %", "setting": "[2]; [7]", "result": 1.38, "unit": "%"}, {"measurement": "CUT value spread: Confidence Interval %", "setting": "[2]; [8]", "result": 1.77, "unit": "%"}, {"measurement": "CUT value spread: RSD, %", "setting": "[2]; [8]", "result": 2.50, "unit": "%"}, {"measurement": "CUT value spread: Confidence Interval %", "setting": "[2]; [9]", "result": 1.16, "unit": "%"}, {"measurement": "CUT value spread: RSD, %", "setting": "[2]; [9]", "result": 1.70, "unit": "%"}, {"measurement": "Particle size X10", "setting": "[3]; [10]", "result": 1.75, "unit": "μm"}, {"measurement": "Particle size X50", "setting": "[3]; [10]", "result": 6.04, "unit": "μm"}, {"measurement": "Particle size X100", "setting": "[3]; [10]", "result": 36, "unit": "μm"}, {"measurement": "Particle size X10", "setting": "[3]; Example 2, final", "result": 4, "unit": "μm"}, {"measurement": "Particle size X50", "setting": "[3]; Example 2, final", "result": 13, "unit": "μm"}, {"measurement": "Particle size X100", "setting": "[3]; Example 2, final", "result": 73, "unit": "μm"}, {"measurement": "Particle size X10", "setting": "[3]; [11]", "result": 3, "unit": "μm"}, {"measurement": "Particle size X50", "setting": "[3]; [11]", "result": 9, "unit": "μm"}, {"measurement": "Particle size X100", "setting": "[3]; [11]", "result": 61, "unit": "μm"}, {"measurement": "Particle size X10", "setting": "[3]; Example 3, final", "result": 1.4, "unit": "μm"}, {"measurement": "Particle size X50", "setting": "[3]; Example 3, final", "result": 5.4, "unit": "μm"}, {"measurement": "Particle size X100", "setting": "[3]; Example 3, final", "result": 30, "unit": "μm"}, {"measurement": "Particle size X10", "setting": "[3]; [12]", "result": 1.2, "unit": "μm"}, {"measurement": "Particle size X50", "setting": "[3]; [12]", "result": 3.4, "unit": "μm"}, {"measurement": "Particle size X100", "setting": "[3]; [12]", "result": 30, "unit": "μm"}, {"measurement": "average particle diameter (×50)", "setting": "[3]; after dissolution and re-crystallization of 40 percent of the precipitate from 20 percent by weight ethyl acetate solution", "result": 7.8, "unit": "μm"}, {"measurement": "Particle diameter X10", "setting": "[3]; [13]", "result": 2.7, "unit": "μm"}, {"measurement": "Particle diameter X50", "setting": "[3]; [13]", "result": 10.61, "unit": "μm"}, {"measurement": "Particle diameter X90", "setting": "[3]; [13]", "result": 24, "unit": "μm"}, {"measurement": "Particle diameter X100", "setting": "[3]; [13]", "result": 73, "unit": "μm"}, {"measurement": "Particle diameter X10", "setting": "[3]; [14]", "result": 2.25, "unit": "μm"}, {"measurement": "Particle diameter X50", "setting": "[3]; [14]", "result": 8.03, "unit": "μm"}, {"measurement": "Particle diameter X90", "setting": "[3]; [14]", "result": 17, "unit": "μm"}, {"measurement": "Particle diameter X100", "setting": "[3]; [14]", "result": 43, "unit": "μm"}, {"measurement": "increase of the maximum particle size (×100)", "setting": "[3]; during dissolution and re-crystallization of 40 percent of the precipitate from 20 percent by weight ethyl acetate solution", "result": "scarcely measurable"}, {"measurement": "average particle diameter (×50)", "setting": "[3]; precipitated from a 20 percent by weight ethyl acetate solution, before dissolution and re-crystallization", "result": 4.9, "unit": "μm"}, {"measurement": "Particle diameter X10", "setting": "[3]; [15]", "result": 2.11, "unit": "μm"}, {"measurement": "Particle diameter X50", "setting": "[3]; [15]", "result": 8.6, "unit": "μm"}, {"measurement": "Particle diameter X90", "setting": "[3]; [15]", "result": 19, "unit": "μm"}, {"measurement": "Particle diameter X100", "setting": "[3]; [15]", "result": 51, "unit": "μm"}, {"measurement": "Particle diameter X10", "setting": "[3]; [16]", "result": "2.62*** μm"}, {"measurement": "Particle diameter X50", "setting": "[3]; [16]", "result": 10.4, "unit": "μm"}, {"measurement": "Particle diameter X90", "setting": "[3]; [16]", "result": 24, "unit": "μm"}, {"measurement": "Particle diameter X100", "setting": "[3]; [16]", "result": 73, "unit": "μm"}]}
